From paper PMC10323144, “Garbage in, garbage out: how reliable training data improved a virtual screening approach against SARS-CoV-2 MPro” (Frontiers in Pharmacology, 2023)
Converted amounts (≈) assume the structure as drawn. “And” between values parts separate entries of the source, which are not always exact repeats. Equal values may be shown once. Read-outs that look alike come from different tables or passages of the source. Marks after values point to notes of the source that are not given here.

How the values were obtained:
SARS-CoV-2 MPro = SARS-CoV-2 MPro (Severe acute respiratory syndrome coronavirus 2, UniProt P0DTD1); experiment: MPro activity assay (de-quenching of Edans fluorescence on cleavage of a Dabcyl/Edans peptide); format: biochemical; conditions: for IC50: 60 min pre-incubation, 5 μM substrate
[1] = system: SARS-CoV-2 (βCoV/KOR/KCDC03/2020); experiment: microbe, parasite or virus in culture; format: cell-based
in vitro = conditions: African green monkey
[2] = Cytotoxicity assay, WST-1; conditions: human, CC50 A549 cells
[3] = system: human lung cell line A549; experiment: Cytotoxicity assay, WST-1; conditions: read-out: CC50 A549 cells, 24 h
MPro = conditions: compiled from peer-reviewed sources (287 compounds) ref the 18 original articles; cited from earlier work
SARS-CoV-2 = system: SARS-CoV-2; set-up: method as in Henss et al., 2021; conditions: 72 h assay ref Henss et al., 2021, cited from earlier work
[4] = Severe acute respiratory syndrome coronavirus 2, Vero, 24 h

SMILES	IC50 (SARS-CoV-2 MPro)	IC50 [1] [µM]	IC50 [1, 4] [µM]	CC50 (in vitro) [µM]	CC50 at 24 h [2] [µM]	further results
[O-][n+]1onc2ccc(/C=C/Sc3ccc(Cl)cc3)cc21 [3d]	0.73 ± 0.16 µM	8.3	~8	15.2	≤ 50	CC50 [3]: < 50 µM
[O-][n+]1onc2ccc(/C=C/[S+]([O-])c3ccc(Cl)cc3)cc21 (stereo not drawn) [4d]	0.121 ± 0.002 µM	7.3	~8	15.2	≤ 50	CC50 [3]: 50 to 100 µM
O=C(/C=C/c1cccc2ccccc12)c1c(O)ccc2ccccc12 [28d]	1.4 µM and 1.35 µM		48.9	> 50	> 100	impairment of cell viability (Vero cells; African green monkey): ~25%
O=c1c(Cl)c(Cl)cnn1Cc1nc2ccccc2c2ccccc12 [39d]	2 µM					inhibition at 50 µM ([1]; Severe acute respiratory syndrome coronavirus 2, Vero, at 50 μM, read-out: inhibition of viral replication): 18%; impairment of cell viability (Vero cells; at 50 μM): 13%
O=c1c(Cl)c(Cl)cnn1Cc1nc2ccccc2c2ccccc12 [Cpd 39]	1.97 ± 0.5 µM		> 50	> 50	50 to 100	Class (MPro activity class) (SARS-CoV-2 MPro; in-house acquired data, internal screening under standardized conditions (128 compounds)): 0 (compounds with IC50 > 20 μM, percentage inhibition <80% at 20 µM or 50 μM, or percentage enzyme inhibition <50% at 10 µM were labelled as INACTIVE)
CCC(CC)COC(=O)[C@H](C)N[P@](=O)(OC[C@H]1O[C@@](C#N)(c2ccc3c(N)ncnn23)[C@H](O)[C@@H]1O)Oc1ccccc1 [Remdesivir]		7.8	8	> 50		SI: selectivity index = CC50 mammalian cell/IC50 SARS-CoV-2 (Vero cells): >50 (>6.4) ^a; Class (MPro activity class) (MPro): 0 (compounds with IC50 > 20 μM, percentage inhibition <80% at 20 µM or 50 μM, or percentage enzyme inhibition <50% at 10 µM were labelled as INACTIVE)
O=C(/C=C/c1ccc2ccccc2c1)c1ccccc1O [compound 25]	0.46 ± 0.21 µM	17.5		38.8	> 50	
O=C(O[C@@H]1Cc2c(O)cc(O)cc2O[C@@H]1c1cc(O)c(O)c(O)c1)c1cc(O)c(O)c(O)c1 [epigallocatechin gallate]						IC50 SARS-CoV-2 replication (SARS-CoV-2): 1.73 µg/mL (≈ 3.77 µM); IC50 (SARS-CoV-2; read-out: IC50 SARS-CoV-2 replication): 3.9 µM
